This data set deals with FVBN and Mdr2KO mice. Nature of the data set: Non-hepatic effects: serum biomarkers of heart (CK) and kidney (CREA, BUN), IDEXX assay system. More on the design: CREA / BUN: unit not given here. To be noted: for effects on heart (CK) and kidneys (CREA, BUN): FVBN and Mdr2KO mice, vs vehicle-treated mice; for CK / BUN / CREA: serum. Format: in vivo, mouse. The method, then: FVB/N (FVBN) and Mdr2^−/− (Mdr2KO) mice were purchased from Jackson Laboratory (Bar Harbor, Me.) and maintained in a temperature-controlled environment at 20-22° C. with a 12:12 hours light-dark cycle, having free access to food and drinking water. All animal procedures were performed in accord with the guidelines of Baylor Scott and White (Temple, Tex.) Institutional Animal Care and Use Committee, with approved protocols. In time-course experiments, 1 week, 1 months, 2 months and 4 months old male and female FVBN and Mdr2KO mice were used. In experiments designed to measure the effect of various agonists and antagonists of Gal receptors, on the extent of liver fibrosis in Mdr2KO mice, 2 months old, male and female Mdr2KO mice were used, as well as FVBN mice as negative controls. Four to five animals in each group of age/gender/type (FVBN or Mdr2KO) were used. In parallel, an equal number of 2 months old, male and female FVBN and MDR2KO mice were treated with vehicle only (saline or 20% DMSO) via the same type of minipumps. Galanin, M871 and M40 peptides were dissolved in saline or 20% DMSO in saline, depending on their solubility, and administered by using Alzet osmotic minipumps (Cupertino, Calif.). Galanin, M871 and M40, were administered at a rate of 4 nmol/Kg/day (mice weights being 25-30 g). Vivo-morpholino oligos including two sequences specific to mouse GalR1, and one mouse GalR1 mismatch control, were administered at a rate of 25 μg/mouse/day, for 14 days, after which the mice were euthanized with euthasol, followed by exsanguination and collection of liver tissue.
Serum alanine aminotransferase (ALT), aspartate aminotransferase (AST), alkaline phosphatase (ALKP), CREA, BUN and CK were measured using the IDEXX Catalyst One instrument from IDEXX Laboratories, Inc (Houston, Tex.).
To investigate possible adverse effects of GalR antagonists on vital organs other than the liver, blood biomarkers of the heart (creatine kinase, CK) and kidneys (creatinine, CREA; blood urea nitrogen, BUN) were investigated in FVBN and Mdr2KO mice when treated with GalR1 vivo morpholino, M871, and M40 as compared to vehicle-treated mice.
Referring to Table 2, non-hepatic effects of GalR1 vivo morpholino, M871, and M40 Gal receptor antagonists on FVBN mice are shown. Several serum biomarkers including creatine kinase (CK) for heart, creatinine (CREA) and blood urea nitrogen (BUN) for kidney, were assessed by using IDEXX assay system. Normal range: CK, 68-1070 U/L; CREA, […]; BUN, […].

Ends that are not written are not given here.

On to GWTLNSAGYLLGPPPALALA-NH2 [M40], for which the “effects on heart (CK) and kidneys (CREA, BUN)” value was “no effects on the heart or kidneys”. Also, the CK (Female FVBN mice) came out at 151.30 ± 19.90 U/L. Where the note is “Female Mdr2KO mice”, the CK was found to be 163.33 ± 63.33 U/L. The CK (Male FVBN mice) amounted to 190.00 ± 58.59 U/L. Further, the CK (Male Mdr2KO mice) was determined as 103.33 ± 3.33 U/L.

Regarding WTLNSAGYLLGPEHPPPALALA-NH2 [M871], the “effects on heart (CK) and kidneys (CREA, BUN)” value is reported as “no effects on the heart or kidneys”. Moreover, for the setting “Female FVBN mice”, the BUN is listed as 26.55 ± 1.67, the CK stood at 136.67 ± 36.67 U/L and the CREA stood at 0.79 ± 0.041. For the setting “Female Mdr2KO mice”, this substance registered a BUN of 23.33 ± 0.49, a CK of 213.33 ± 103.49 U/L and a CREA of 0.68 ± 0.012. Under “Male FVBN mice”, the BUN came out at 26.97 ± 0.83, the CK is reported as 99.67 ± 0.88 U/L and the CREA was 0.81 ± 0.063. For the setting “Male Mdr2KO mice”, this substance gave a BUN of 23.04 ± 0.92, a CK of 230.00 ± 52.92 U/L and a CREA of 0.67 ± 0.042.

The values are drawn from patent US20220233640A1, “GALANIN- AND GALANIN RECEPTOR BASED COMPOUNDS FOR THE TREATMENT OF LIVER FIBROSIS” (United State Govermment as represented by the Department of …, priority 2019, published 2022).
